The results in this text go back to patent publication US20160214996A1, “MACROCYCLIC COMPOUNDS FOR THE TREATMENT OF PROLIFERATIVE DISEASES” (CS Pharmasciences, Inc., priority 2013, published 2016).

Structures are written as SMILES.

As usually defined, the IC50 is the concentration that gives 50% inhibition.

Assay [1] has as its target T1, ALK L1196M (Homo sapiens, UniProt Q9UM73, L1196M).
T1 construct: purchased Carna Biosciences (Japan)
Put plainly: ALK L1196M standard HTRF enzyme assay. The note with it: 0.15 nM ALK L1196M, 30 μM ATP, 60 minutes at room temperature, read-out: IC50 (nM) ALK_L1196M. Type of assay: biochemical. How it is done:
(§1) Wild type ALK and L1196M mutant ALK enzyme inhibition by the compounds of formula (I) was measured using an HTRF assay.
(§2) ALK wild type and ALK L1196M were acquired from Carna Biosciences (Japan). A standard HTRF kit (containing Eu-labeled TK1 antibody, XL665, biotin conjugated TK1 peptide, 5× enzymatic buffer and 1×HTRF detection buffer) were purchased from Cis-Bio International. Plates were read on an Envision multi-label plate reader (Perkin Elmer).
(§3) In both assays, the compounds were tested in 11 doses in duplicate with 3-fold dilution as the final concentrations were from 10 μM to 0.17 nM. Compound 13a was tested with lower top concentrations of 1 μM due to high potency.
[…]. The enzyme reaction was carried out at room temperature in white Proxiplate 384-Plus plate (PerkinElmer) for 60 minutes.
(§4) The detection reagents ([…]) were added at final concentrations of 2 nM antibody and 62.5 nM XL665. The plates were incubated at room temperature for 60 minutes and then read in the Envision plate reader.
(§5) The readouts were transformed into inhibition rate % by the equation of (Ratio-Min)/(Max-Min)*100%.

The target in assay [2] is T2, ALK wild type (Homo sapiens, UniProt Q9UM73).
T2 construct: purchased Carna Biosciences (Japan)
Put plainly: ALK wild type standard HTRF enzyme assay. The format is biochemical. To be noted: 0.5 nM ALK wild type, 30 μM ATP, 90 minutes at room temperature, read-out: IC50 (nM) ALK_wt. How it is done: as §1, §2, §3
The enzyme reaction mixture of ALK wild type standard HTRF assay contained 0.5 nM ALK wild type, 1 μM biotin-TK1 peptide, 30 μM ATP and 50 nM SEB in 1× enzymatic reaction buffer containing 50 mM (pH 7.0) HEPES, 5 mM MgCl2, 0.02% NaN3, 0.01% BSA, 0.1 mM Orthovanadate and 1 mM DTT at a final volume of 10 μl. The enzyme reaction was carried out at room temperature in white Proxiplate 384-Plus plate (PerkinElmer) for 90 minutes.
as §4, §5

T2 sequence (Q9UM73 19-1620): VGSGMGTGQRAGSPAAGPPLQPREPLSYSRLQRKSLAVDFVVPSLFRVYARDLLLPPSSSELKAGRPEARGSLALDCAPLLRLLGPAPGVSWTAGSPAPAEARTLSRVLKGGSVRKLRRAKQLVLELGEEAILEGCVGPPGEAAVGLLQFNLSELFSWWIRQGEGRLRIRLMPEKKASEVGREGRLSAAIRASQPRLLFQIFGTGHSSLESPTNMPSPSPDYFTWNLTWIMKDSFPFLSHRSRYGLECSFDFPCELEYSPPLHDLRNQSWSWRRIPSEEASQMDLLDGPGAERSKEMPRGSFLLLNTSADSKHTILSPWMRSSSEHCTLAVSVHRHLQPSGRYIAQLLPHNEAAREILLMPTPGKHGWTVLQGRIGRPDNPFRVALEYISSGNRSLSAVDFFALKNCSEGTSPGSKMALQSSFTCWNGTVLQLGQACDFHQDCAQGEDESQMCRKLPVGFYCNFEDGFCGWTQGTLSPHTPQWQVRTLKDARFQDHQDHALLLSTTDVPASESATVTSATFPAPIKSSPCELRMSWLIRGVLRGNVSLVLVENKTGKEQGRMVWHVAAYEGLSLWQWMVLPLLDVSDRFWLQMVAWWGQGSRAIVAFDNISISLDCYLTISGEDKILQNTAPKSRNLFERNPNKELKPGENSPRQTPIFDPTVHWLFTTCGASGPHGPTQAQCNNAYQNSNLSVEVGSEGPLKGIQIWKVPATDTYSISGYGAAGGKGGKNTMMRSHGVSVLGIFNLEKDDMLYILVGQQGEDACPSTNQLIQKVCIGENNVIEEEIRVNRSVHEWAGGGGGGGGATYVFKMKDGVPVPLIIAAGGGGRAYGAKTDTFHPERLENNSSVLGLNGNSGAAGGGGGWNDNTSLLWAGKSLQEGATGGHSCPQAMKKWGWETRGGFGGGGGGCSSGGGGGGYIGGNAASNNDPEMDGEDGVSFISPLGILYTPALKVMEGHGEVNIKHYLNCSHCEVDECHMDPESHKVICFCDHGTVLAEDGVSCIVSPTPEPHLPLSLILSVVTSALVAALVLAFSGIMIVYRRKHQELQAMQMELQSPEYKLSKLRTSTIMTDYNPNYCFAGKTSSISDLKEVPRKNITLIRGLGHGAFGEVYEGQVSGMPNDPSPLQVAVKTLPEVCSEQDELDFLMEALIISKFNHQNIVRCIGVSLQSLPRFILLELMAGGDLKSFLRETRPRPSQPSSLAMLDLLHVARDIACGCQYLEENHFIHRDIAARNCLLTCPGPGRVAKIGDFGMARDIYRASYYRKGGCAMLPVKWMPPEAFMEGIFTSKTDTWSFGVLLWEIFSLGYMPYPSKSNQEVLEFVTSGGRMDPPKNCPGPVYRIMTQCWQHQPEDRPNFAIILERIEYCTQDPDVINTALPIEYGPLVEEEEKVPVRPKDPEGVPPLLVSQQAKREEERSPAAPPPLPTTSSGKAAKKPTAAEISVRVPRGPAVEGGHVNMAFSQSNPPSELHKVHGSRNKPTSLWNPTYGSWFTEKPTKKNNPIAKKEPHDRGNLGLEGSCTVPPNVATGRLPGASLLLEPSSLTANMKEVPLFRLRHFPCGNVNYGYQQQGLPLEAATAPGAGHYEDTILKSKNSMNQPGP
T1 sequence (Q9UM73 19-1620 L1196M): as the sequence (Q9UM73 19-1620) above, with L1178M counted along it

As for `CC1Oc2cc(cnc2N)-c2c(nn(C)c2C#N)N(C)C(=O)COc2ccc(F)cc21` (single isomer, unassigned) [Compound 16], the figures for the IC50 in assay [1] and in assay [2] were 529 nM and 34.8 nM, respectively.
In the case of `CC1Oc2cc(cnc2N)-c2c(nn(C)c2C#N)N(C)C(=O)COc2ccc(F)cc21` (single isomer, unassigned) [Compound 17], the 50% inhibitory concentration (IC50) in assay [2] was determined as 7430 nM.
`CC1Oc2cc(cnc2N)-c2c(nn(C)c2C#N)NC(=O)COc2ccc(F)cc21` (stereo not shown) [Compound 15]: in assay [2], the 50% inhibitory concentration (IC50) is 2370 nM.
